Several values for one entry are separate records, joined by “and”; a condition that tells them apart may be missing. Equal values may be shown once.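 Grown in 96-well plates, cells were treated for 48 hours with each compound at five concentrations. Insufficient inhibition: endpoint recorded as highest concentration tested. GI50 is the concentration that inhibits growth by half. Definition used: TGI = concentration required for complete inhibition of growth.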

Common to all, as to experiment: NCI-60 cell line screen, 48 h
Assay [1] deals with RXF 393 renal.
In assay [2] the test system is OVCAR-3 ovarian.
For assay [3], the system named is IGROV1 ovarian.
Assay [4] deals with SF-295 CNS.
Assay [5] has as its system HCC-2998 colon.
For assay [6], the system named is PC-3 prostate.
Assay [7] concerns NCI-H23 lung.
Assay [8] relates to KM12 colon.
Assay [9] deals with K-562 leukemia.
Assay [10] concerns HCT-116 colon.

As for `CC[C@@H]1C(=O)N(C)c2cnc(Nc3ccc(C(=O)NC4CCC(N5CCN(CC6CC6)CC5)CC4)cc3OC)nc2N1C(C)C` (stereo not given in full), the GI50 in [1] is 0.0349 µM and 0.0393 µM; in [2], 0.013 µM and < 0.0161 µM; in assay [3] it was 0.0418 µM and 0.0524 µM; in assay [4], 0.0353 µM and 0.0406 µM; in assay [5], 0.0289 µM and 0.0374 µM; in assay [6], 0.0287 µM and 0.0366 µM. Also, the GI50 in [7] was 0.0158 µM and 0.028 µM; in [8], 0.0069 µM and < 0.01 µM; in [9] it was 0.00946 µM and 0.0288 µM; in assay [10], 0.0136 µM and 0.022 µM. The TGI in assay [1] is > 9.08 µM and 4.9 µM; in assay [3] it was > 10 µM and 7.22 µM; in [4], 2.51 µM and 2.44 µM; in assay [5] it was > 4.12 µM and 2.83 µM; in assay [6], > 10 µM and 17.7 µM; in assay [7], > 10 µM and 2.99 µM. The TGI in [8] was > 10 µM and 8.15 µM; in assay [9] it was > 10 µM and 1.83 µM; in [10], > 3.83 µM and 1.68 µM.
Consider `CN(C)CCN1C(=O)c2cccc3cc(N)cc(c23)C1=O`, for which the TGI is 18.1 µM and 10.6 µM in assay [1]; 25.9 µM and 26.4 µM in [2]; > 44.1 µM and 20.8 µM in assay [3]; 9.31 µM and 18.4 µM in [4]; 22.1 µM and 12 µM in assay [5]; 42.8 µM and 8.73 µM in assay [6]. Further, the TGI in [7] is 22.7 µM and 14.1 µM; in [8], 26.5 µM and 25.5 µM; in [9], > 100 µM and 37.4 µM; in assay [10], > 60.2 µM and 9.87 µM. Besides, the GI50 is 4.98 µM in assay [2]; 2.68 µM in assay [3]; 2.29 µM in assay [4]; 4.69 µM in assay [5]; 4.07 µM in assay [6]; 3.43 µM in assay [7]. Also, the GI50 is 3.32 µM in [8] and 3.21 µM in assay [10].
Regarding `COc1ccc(-c2cc(=O)c3c(C)ccnc3[nH]2)cc1`, the TGI in [1] is 41.6 µM; in [2], 92 µM; in assay [3], > 100 µM; in [4], > 100 µM; in assay [5] it was > 100 µM; in [6], > 100 µM. Further, the TGI in assay [7] was 65.2 µM; in assay [8], 23.2 µM; in [9], > 100 µM; in assay [10] it was 39.4 µM. The GI50 in [2] was 13.9 µM; in assay [4] it was 19.5 µM; in assay [6] it was 18.1 µM; in assay [10], 6.43 µM.
For the compound `COc1cccc(C2CC(C)(O)Oc3cc4c(cc32)OCO4)c1` (stereo not given), the TGI in [1] is > 100 µM; in [2] it was 56 µM; in [3], > 100 µM; in assay [4], 95.7 µM; in assay [5] it was > 100 µM; in [6] it was > 100 µM. Also, the TGI in [7] is > 100 µM; in assay [8], > 100 µM; in assay [9], > 100 µM; in assay [10] it was 28.5 µM.
Turning to `O=C(O)c1c2c(c(O)c3c1CN(C1CCCCC1)CO3)OCN(C1CCCCC1)C2`, the TGI in assay [1] is > 100 µM; in assay [2], > 100 µM; in assay [3], > 100 µM; in assay [4], > 100 µM; in assay [5], 84.1 µM; in [6] it was > 100 µM. In addition, the TGI in assay [7], in assay [8], in assay [9] and in assay [10] was > 100 µM each time.
As to `O=C(O)C1CCCN1` (stereo not given), the TGI in assay [1], in assay [2], in [3], in assay [4], in assay [5] and in assay [6] was > 100 µM in each case. The TGI in assay [7], in assay [8], in [9] and in assay [10] was > 100 µM in each case.
Consider `CCOc1ccc2nc3cc(N)ccc3c(N)c2c1`, for which the GI50 was 4.97 µM and 2.38 µM in assay [1]; 2 µM and 1.91 µM in assay [2]; 11.5 µM and 15.3 µM in [3]; 2.09 µM and 1.98 µM in assay [4]; 3.24 µM and 1.43 µM in assay [5]; 3.85 µM and 2.99 µM in assay [6]. The GI50 in [7] was 2.2 µM and 2.31 µM; in [8] it was 2.73 µM and 1.06 µM; in assay [9], 6.03 µM and 6.26 µM; in [10] it was 3.62 µM and 3.63 µM. In addition, the TGI in assay [1] is 20.3 µM and 14.6 µM; in assay [2], 7.25 µM and 10.5 µM; in assay [3] it was 37.3 µM and 45.4 µM; in assay [4], 11.9 µM and 11.4 µM; in assay [5], 13.9 µM and 4.72 µM; in assay [6], 16.1 µM and 12.7 µM. For the same compound, the TGI in assay [7] was 13.2 µM and 11.3 µM; in [8], 17.1 µM and 12.9 µM; in [9] it was 20.2 µM and 25.4 µM; in [10] it was 15.4 µM and 14.2 µM.
As for `CN1CCN(CCCOC(=O)c2c3c(n4ccccc24)C(=O)c2ncccc2C3=O)CC1`, the GI50 in [1] was < 0.0118 µM; in assay [2] it was 0.0403 µM; in assay [3], < 0.0194 µM; in assay [4], < 0.0117 µM; in [5], < 0.0135 µM; in assay [6], < 0.0232 µM. Further, the GI50 in assay [7] was < 0.01 µM; in [8] it was 0.0669 µM; in [9], < 0.0113 µM; in [10] it was < 0.01 µM. Further, the TGI in [1] was found to be 0.0303 µM; in assay [2] it was 4.95 µM; in assay [3], 4.71 µM; in assay [4] it was 0.199 µM; in assay [5], 1.98 µM; in assay [6] it was 16.7 µM. Also, the figures for the TGI in [7], in [8] and in [10] were < 0.0172 µM, 13.8 µM and 2.91 µM, respectively.
In the case of `CC(C)OC(=O)Nc1c([N+](=O)[O-])cc(C(F)(F)F)cc1[N+](=O)[O-]`, the TGI was 62.3 µM in [1]; > 100 µM in assay [2]; > 100 µM in [3]; 98.2 µM in assay [4]; > 100 µM in [5]; > 100 µM in assay [6]. Besides, the TGI in assay [7] is > 100 µM; in [8], > 100 µM; in assay [9] it was > 46.4 µM; in assay [10], > 100 µM.
For the compound `C=C(C)[C@@H]1CC[C@]2(C(=O)OC)CC[C@]3(C)[C@H](CC[C@@H]4[C@@](C)(CCc5nn[nH]n5)[C@H](C(=C)C)CC[C@]43C)[C@@H]12`, the GI50 in assay [1] was 15.7 µM; in [2], 13.5 µM; in [3], 17.4 µM; in [4], 13.6 µM; in assay [5], 15.8 µM; in [6] it was 3.46 µM. Besides, the GI50 was 16.4 µM in [7], 10.7 µM in assay [8], 18.4 µM in assay [9] and 26.9 µM in assay [10]. Besides, the TGI in [1] worked out at 30.1 µM; in assay [2] it was 27 µM; in assay [3] it was 46.2 µM; in [4], 44.3 µM; in [5] it was 30.5 µM; in assay [6] it was 17.2 µM. The TGI in assay [7] is 39.4 µM; in [8] it was 25 µM; in assay [9], > 100 µM; in [10] it was > 100 µM.
Turning to `OC(c1ccccc1)c1c(-c2ccccc2)[nH]c(-c2ccccc2)c1C(O)c1ccccc1` (stereo not given), the TGI in assay [1] was 10.3 µM; in assay [2] it was 8.33 µM; in [3], 12 µM; in assay [4], 38.6 µM; in assay [5], 22.4 µM; in [6] it was 21.1 µM. Moreover, the TGI in assay [7] is 16.5 µM; in [8] it was 6.09 µM; in assay [9], 4.64 µM; in [10], 8.83 µM.
For the compound `CN1CCN(c2cc(F)c(NC3=C(Cl)C(=O)c4ncccc4C3=O)c(F)c2)CC1`, the GI50 is 1.64 µM in assay [1]; 0.539 µM in [2]; 1.53 µM in assay [3]; 1.68 µM in assay [4]; 1.84 µM in assay [5]; 1.6 µM in assay [6]. Besides, the GI50 in [7] is 1.4 µM; in assay [8], 2.01 µM; in assay [9], 0.651 µM; in assay [10] it was 0.646 µM. Further, the TGI in assay [1] stood at 3.1 µM; in [2], 2 µM; in [3] it was 3.37 µM; in [4], 3.23 µM; in assay [5], 3.55 µM; in assay [6], 3.74 µM. Further, the TGI in assay [7] was 3.01 µM; in assay [8], 4.3 µM; in [9] it was > 100 µM; in assay [10] it was 2.26 µM.
As to `COCCn1c(Nc2ccc(C(=O)NO)cc2)nc2ccccc21`, the GI50 in assay [1] was 0.846 µM; in [2], 3.24 µM; in [3], 2.39 µM; in assay [4] it was 2.93 µM; in [5], 3.32 µM; in [6] it was 8.78 µM. The GI50 was 4.43 µM in [7], 3.65 µM in [8], 3.03 µM in [9] and 2.11 µM in [10]. The TGI in assay [1] is 3.91 µM; in assay [2], 14.1 µM; in [3], 15.2 µM; in assay [4], 16.3 µM; in assay [5], 12.6 µM; in [6], > 100 µM. Besides, the TGI in [7] was 16.3 µM; in assay [8], 15.1 µM; in assay [9], > 100 µM; in assay [10], 6.54 µM.
